The target of one assay is T1, human TLR7 (Homo sapiens, UniProt Q9NYK1).
T1 construct: expressed in transfected cells; host or cells: HEK293
T1 sequence (Q9NYK1 27-1049): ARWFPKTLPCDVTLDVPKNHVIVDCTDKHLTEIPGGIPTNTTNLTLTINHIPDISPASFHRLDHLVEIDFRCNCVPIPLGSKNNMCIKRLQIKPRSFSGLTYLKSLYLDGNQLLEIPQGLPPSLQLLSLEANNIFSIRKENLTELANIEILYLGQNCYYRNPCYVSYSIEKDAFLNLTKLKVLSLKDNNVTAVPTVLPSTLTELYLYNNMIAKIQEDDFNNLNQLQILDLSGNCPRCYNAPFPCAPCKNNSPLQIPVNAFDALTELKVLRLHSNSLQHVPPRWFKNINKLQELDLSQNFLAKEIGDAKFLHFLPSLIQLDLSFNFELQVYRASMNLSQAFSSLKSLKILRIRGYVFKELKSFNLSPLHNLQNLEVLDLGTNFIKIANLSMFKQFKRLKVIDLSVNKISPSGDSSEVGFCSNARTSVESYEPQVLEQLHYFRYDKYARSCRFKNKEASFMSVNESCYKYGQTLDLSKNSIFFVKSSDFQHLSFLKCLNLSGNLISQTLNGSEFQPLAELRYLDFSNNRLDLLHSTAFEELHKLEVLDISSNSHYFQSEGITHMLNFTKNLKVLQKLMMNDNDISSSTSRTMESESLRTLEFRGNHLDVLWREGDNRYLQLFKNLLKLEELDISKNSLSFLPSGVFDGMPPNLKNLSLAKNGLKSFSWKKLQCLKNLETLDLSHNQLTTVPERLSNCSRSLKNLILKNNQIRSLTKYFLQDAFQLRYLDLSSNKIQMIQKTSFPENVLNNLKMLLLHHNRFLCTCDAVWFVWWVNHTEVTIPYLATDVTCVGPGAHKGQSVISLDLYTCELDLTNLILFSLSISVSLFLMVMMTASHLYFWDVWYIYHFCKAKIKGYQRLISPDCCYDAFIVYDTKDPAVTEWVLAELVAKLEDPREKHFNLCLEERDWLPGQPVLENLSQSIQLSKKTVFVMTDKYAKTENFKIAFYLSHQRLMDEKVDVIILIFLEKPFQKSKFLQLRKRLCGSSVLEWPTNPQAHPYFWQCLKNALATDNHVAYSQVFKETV
The assay can be described thus: TLR7 wild type NFκB-luc cellular reporter assay. Type of assay: cell-based. Details: unit not given here. The note with it: HEK293 NFκB-luc reporter, 6 hours incubation; second part of table. The procedure: The ability of compounds to activate human TLR7 and/or TLR8 was assessed in a cellular reporter assay using HEK293 cells transiently transfected with a TLR7 or TLR8 expression vector and NFκB-luc reporter construct. In one instance the TLR expression construct expresses the respective wild type sequence or a mutant sequence comprising a deletion in the second leucine-rich repeat of the TLR.
Briefly, HEK293 cells were grown in culture medium (DMEM supplemented with 10% FCS and 2 mM Glutamine). For transfection of cells in 10 cm dishes, cells were detached with Trypsin-EDTA, transfected with a mix of CMV-TLR7 or TLR8 plasmid (750 ng), NFκB-luc plasmid (375 ng) and a transfection reagent and incubated 24 hours at 37° C. in a humidified 5% CO2 atmosphere. Transfected cells were then detached with Trypsin-EDTA, washed in PBS and resuspended in medium to a density of 1.67×10^5 cells/mL. Thirty microliters of cells were then dispensed into each well in 384-well plates, where 10 μL of compound in 4% DMSO was already present. […] Dose response curves were generated from measurements performed in quadruplicates. Lowest effective concentrations (LEC) values, defined as the concentration that induces an effect which is at least two fold above the standard deviation of the assay, were determined for each compound.

Another assay has as its target T2, human TLR8 (Homo sapiens, UniProt Q9NR97).
T2 construct: expressed in transfected cells; host or cells: HEK293
T2 sequence (Q9NR97 27-1041): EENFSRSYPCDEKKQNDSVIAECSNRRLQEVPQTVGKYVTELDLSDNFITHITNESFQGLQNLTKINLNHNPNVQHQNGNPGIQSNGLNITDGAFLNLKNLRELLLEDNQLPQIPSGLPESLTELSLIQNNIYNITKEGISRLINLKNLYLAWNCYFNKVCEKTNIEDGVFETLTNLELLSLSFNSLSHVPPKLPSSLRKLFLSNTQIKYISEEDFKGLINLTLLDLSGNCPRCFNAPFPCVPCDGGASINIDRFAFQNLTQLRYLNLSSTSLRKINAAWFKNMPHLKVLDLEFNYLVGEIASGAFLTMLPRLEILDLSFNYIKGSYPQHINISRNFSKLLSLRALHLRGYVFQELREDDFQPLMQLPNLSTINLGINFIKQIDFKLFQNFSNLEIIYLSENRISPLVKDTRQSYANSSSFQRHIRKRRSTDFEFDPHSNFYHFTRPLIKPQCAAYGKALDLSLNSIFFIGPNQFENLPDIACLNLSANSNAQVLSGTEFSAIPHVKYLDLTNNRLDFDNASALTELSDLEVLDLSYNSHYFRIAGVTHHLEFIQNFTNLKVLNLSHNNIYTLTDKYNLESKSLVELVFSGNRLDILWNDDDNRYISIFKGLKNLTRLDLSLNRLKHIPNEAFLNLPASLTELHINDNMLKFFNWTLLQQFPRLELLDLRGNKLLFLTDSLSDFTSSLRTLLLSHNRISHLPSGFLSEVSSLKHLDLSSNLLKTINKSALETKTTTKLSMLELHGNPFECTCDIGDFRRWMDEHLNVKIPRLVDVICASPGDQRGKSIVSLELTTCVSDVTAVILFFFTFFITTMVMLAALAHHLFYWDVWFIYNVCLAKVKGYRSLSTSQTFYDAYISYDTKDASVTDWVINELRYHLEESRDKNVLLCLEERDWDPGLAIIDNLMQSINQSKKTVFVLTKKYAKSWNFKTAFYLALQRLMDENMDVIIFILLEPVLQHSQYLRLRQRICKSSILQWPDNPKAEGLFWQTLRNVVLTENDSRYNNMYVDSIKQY
The assay can be described thus: TLR8 wild type NFκB-luc cellular reporter assay. Type of assay: cell-based. Details: unit not given here. The conditions noted are these: HEK293 NFκB-luc reporter, 6 hours incubation; second part of table. The method, boiled down:
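HEK293 cells transiently transfected with wild-type or second-LRR-deletion (dIRR2) TLR7/TLR8 plasmid plus NFκB-luc, 24 h; compound added for 6 h at 37 °C. Luciferase read-out, quadruplicate dose responses. LEC = lowest concentration giving effect at least two-fold above assay SD.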

A value given as a limit tells only on which side of the number the result lay.

For `CCC[C@@H](CO)Nc1nc(N)nc2cc(F)ccc12` [Compound 48], on human TLR7, the “TLR7-wt (LEC)” value is on record as 0.54. Moreover, the “TLR8-wt (LEC)” value at human TLR8 turned out to be 0.01.
On the same counts, the results for `CCC[C@@H](CO)Nc1nc(N)nc2ccc(F)cc12` [Compound 49] are 2.09 and 0.03.
On the same counts, the results for `CCC[C@@H](CO)Nc1nc(N)nc2cccc(F)c12` [Compound 50] are 0.32 and 0.00.
Regarding `CCCC[C@@H](CO)Nc1nc(N)nc2ccc(C)cc12` [Compound 51], the “TLR7-wt (LEC)” value at human TLR7 was 0.60. The “TLR8-wt (LEC)” value on human TLR8 is listed as 0.04.
For `CCCC[C@@H](CO)Nc1nc(N)nc2cccc(C)c12` [Compound 52], in that order: 0.41 and 0.03.
For `CCC[C@@H](CCO)Nc1nc(N)nc2cc(C)ccc12` [Compound 53], in that order: 0.06 and 0.05.
On the same counts, the results for `CCC[C@@H](CCO)Nc1nc(N)nc2ccc(C)cc12` [Compound 54] are 0.54 and 0.43.
As to `CCC[C@@H](CO)Nc1nc(N)nc2cc(OC)ccc12` [Compound 56], the “TLR7-wt (LEC)” value at human TLR7 worked out at 0.39. The “TLR8-wt (LEC)” value at human TLR8 amounted to 0.04.
For `CCC[C@@H](CO)Nc1nc(N)nc2ccc(OC)cc12` [Compound 57], in that order: 10.77 and 0.53.
For `CCC[C@@H](CO)Nc1nc(N)nc2cccc(OC)c12` [Compound 58], in that order: 0.18 and 0.03.
On the same counts, the results for `CCCC[C@@H](CO)Nc1nc(N)nc2c(F)cccc12` [Compound 59] are 0.29 and 0.04.
For `CCCC[C@@H](CO)Nc1nc(N)nc2cc(F)ccc12` [Compound 60], the “TLR7-wt (LEC)” value on human TLR7 is 0.23. On human TLR8, the “TLR8-wt (LEC)” value is recorded as 0.01.
For `CCCC[C@@H](CO)Nc1nc(N)nc2ccc(F)cc12` [Compound 61], in that order: 0.57 and 0.05.
For `CCCC[C@@H](CO)Nc1nc(N)nc2cccc(F)c12` [Compound 62], in that order: 0.75 and 0.01.
On the same counts, the results for `CCC[C@@H](CCO)Nc1nc(N)nc2c(F)cccc12` [Compound 63] are 0.29 and 0.15.
Regarding `CCC[C@@H](CCO)Nc1nc(N)nc2cc(F)ccc12` [Compound 64], the “TLR7-wt (LEC)” value at human TLR7 is 0.11. Further, at human TLR8, the “TLR8-wt (LEC)” value was found to be 0.03.
For `CCC[C@@H](CCO)Nc1nc(N)nc2ccc(F)cc12` [Compound 65], in that order: 0.94 and 0.44.
On the same counts, the results for `CCC[C@@H](CCO)Nc1nc(N)nc2cccc(F)c12` [Compound 66] are 0.22 and 0.02.
For `CC[C@H](C)[C@@H](CO)Nc1nc(N)nc2c(F)cccc12` [Compound 67], in that order: 2.50 and 0.11.
As for `CC[C@H](C)[C@@H](CO)Nc1nc(N)nc2ccc(F)cc12` [Compound 68], the “TLR7-wt (LEC)” value at human TLR7 was determined as 4.57. In addition, the “TLR8-wt (LEC)” value at human TLR8 is listed as 0.33.
For `CCC[C@@H](CO)Nc1nc(N)nc2c(Cl)cccc12` [Compound 69], in that order: 7.48 and 0.38.
On the same counts, the results for `CCC[C@@H](CO)Nc1nc(N)nc2cc(Cl)ccc12` [Compound 70] are 0.41 and 0.01.
On the same counts, the results for `CCC[C@@H](CO)Nc1nc(N)nc2cccc(Cl)c12` [Compound 71] are 1.02 and 0.01.
As for `CCC[C@@H](CO)Nc1nc(N)nc2cc(F)c(F)cc12` [Compound 72], the “TLR7-wt (LEC)” value on human TLR7 is recorded as 2.59. Besides, the “TLR8-wt (LEC)” value at human TLR8 was determined as 0.02.
Regarding `CCCC[C@@H](CCO)Nc1nc(N)nc2cc(C)ccc12` [Compound 73], on human TLR7, the “TLR7-wt (LEC)” value stood at 0.03. The “TLR8-wt (LEC)” value at human TLR8 stood at 0.06.
For `CCCC[C@@H](CCO)Nc1nc(N)nc2ccc(C)cc12` [Compound 74], in that order: 0.44 and 0.25.
For `CCCC[C@@H](CCO)Nc1nc(N)nc2cccc(C)c12` [Compound 75], in that order: 0.14 and 0.06.
On the same counts, the results for `CCCC[C@@H](CO)Nc1nc(N)nc2cc(OC)ccc12` [Compound 76] are 0.26 and 0.04.
For the compound `CCCC[C@@H](CO)Nc1nc(N)nc2ccc(OC)cc12` [Compound 77], the “TLR7-wt (LEC)” value on human TLR7 is listed as 3.48. Moreover, the “TLR8-wt (LEC)” value at human TLR8 stood at 0.62.
For `CCC[C@@H](CCO)Nc1nc(N)nc2cc(OC)ccc12` [Compound 78], in that order: 0.20 and 0.13.
For `CCC[C@@H](CCO)Nc1nc(N)nc2ccc(OC)cc12` [Compound 79], in that order: 11.87 and 2.97.
On the same counts, the results for `CC[C@H](C)[C@@H](CO)Nc1nc(N)nc2ccc(OC)cc12` [Compound 80] are above 25 and 4.10.
For `CCCC[C@@H](CCO)Nc1nc(N)nc2c(F)cccc12` [Compound 81], the “TLR7-wt (LEC)” value at human TLR7 stood at 0.11. Besides, on human TLR8, the “TLR8-wt (LEC)” value is recorded as 0.16.
On the same counts, the results for `CCCC[C@@H](CCO)Nc1nc(N)nc2cc(F)ccc12` [Compound 82] are 0.04 and 0.03.
On the same counts, the results for `CCCC[C@@H](CCO)Nc1nc(N)nc2ccc(F)cc12` [Compound 83] are 1.59 and 0.42.
For `CCCC[C@@H](CCO)Nc1nc(N)nc2cccc(F)c12` [Compound 84], the “TLR7-wt (LEC)” value on human TLR7 was found to be 0.44. For the same compound, at human TLR8, the “TLR8-wt (LEC)” value amounted to 0.10.

Values taken from US8916575B2, “Quinazoline derivatives for the treatment of viral infections and further diseases” (Janssen R&D Ireland, priority 2011, dated 2014).
